What was measured:
Assay type in all cases: biochemical
Btk = target: T1, Btk (Homo sapiens, UniProt Q06187); assay: Z'-Lyte FRET kinase assay (Invitrogen), Btk; conditions: read-out: IC50, activity toward kinase Btk
T1 construct: purchased Invitrogen (assay run by Invitrogen)

FGFR1 = target: T2, FGFR1 (Homo sapiens, UniProt P11362, C488A/C584S); assay: AlphaScreen kinase assay, FGFR1; conditions: read-out: IC50, activity toward kinase FGFR
T2 construct: P1351.pET N6 BI-PTP FGFR A458-E765-X C488A, C584S; made in house; host or cells: E. coli (PTP1B co-expressed)
T2 sequence (P11362 458-765 C488A/C584S): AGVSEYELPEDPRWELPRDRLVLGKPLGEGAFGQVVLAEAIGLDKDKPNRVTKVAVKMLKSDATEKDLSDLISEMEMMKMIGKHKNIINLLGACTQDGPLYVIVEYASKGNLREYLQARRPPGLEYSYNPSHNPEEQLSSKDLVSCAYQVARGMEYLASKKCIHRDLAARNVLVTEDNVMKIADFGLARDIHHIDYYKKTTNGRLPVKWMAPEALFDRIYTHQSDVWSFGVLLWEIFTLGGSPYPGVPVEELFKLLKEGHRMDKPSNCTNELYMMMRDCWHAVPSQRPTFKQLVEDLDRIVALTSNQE

Pyk2 = target: T3, Pyk2 (Homo sapiens, UniProt Q14289); assay: AlphaScreen kinase assay, Pyk2; conditions: read-out: IC50, activity toward kinase Pyk2
T3 construct: purchased Upstate Biotechnology
T3 sequence (Q14289 whole entry): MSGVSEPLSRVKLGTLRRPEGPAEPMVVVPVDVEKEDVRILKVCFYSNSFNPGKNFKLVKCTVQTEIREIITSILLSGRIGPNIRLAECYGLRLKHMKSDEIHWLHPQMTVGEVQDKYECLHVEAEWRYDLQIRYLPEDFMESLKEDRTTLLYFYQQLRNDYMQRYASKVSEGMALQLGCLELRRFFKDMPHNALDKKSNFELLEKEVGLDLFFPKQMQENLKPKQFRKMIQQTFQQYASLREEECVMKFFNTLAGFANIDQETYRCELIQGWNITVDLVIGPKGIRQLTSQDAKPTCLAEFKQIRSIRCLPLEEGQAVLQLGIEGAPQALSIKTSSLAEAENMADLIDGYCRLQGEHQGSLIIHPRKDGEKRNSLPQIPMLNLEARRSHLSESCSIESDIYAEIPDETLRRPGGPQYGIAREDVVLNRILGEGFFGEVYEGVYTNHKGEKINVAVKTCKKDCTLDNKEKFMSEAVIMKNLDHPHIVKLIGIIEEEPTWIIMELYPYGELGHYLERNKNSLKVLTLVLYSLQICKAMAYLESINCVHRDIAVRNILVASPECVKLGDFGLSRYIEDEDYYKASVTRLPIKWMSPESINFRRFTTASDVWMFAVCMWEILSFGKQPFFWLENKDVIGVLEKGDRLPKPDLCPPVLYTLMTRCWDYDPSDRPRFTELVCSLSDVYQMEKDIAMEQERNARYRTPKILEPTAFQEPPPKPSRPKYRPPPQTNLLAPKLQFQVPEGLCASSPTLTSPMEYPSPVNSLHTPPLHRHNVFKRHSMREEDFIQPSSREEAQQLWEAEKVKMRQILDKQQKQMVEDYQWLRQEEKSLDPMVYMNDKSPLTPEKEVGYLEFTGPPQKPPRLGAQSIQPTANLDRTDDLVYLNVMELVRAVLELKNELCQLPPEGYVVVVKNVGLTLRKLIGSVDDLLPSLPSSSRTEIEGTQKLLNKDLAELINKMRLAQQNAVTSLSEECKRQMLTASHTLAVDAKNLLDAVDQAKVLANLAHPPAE

B-Raf = target: T4, B-Raf (Homo sapiens, UniProt P15056); assay: AlphaScreen kinase assay, B-Raf; conditions: read-out: IC50, activity toward kinase B-Raf
T4 construct: purchased Upstate Biotechnology

TEC = target: T5, TEC (Homo sapiens, UniProt P42680); assay: AlphaScreen kinase assay, TEC; conditions: read-out: IC50, activity toward kinase TEC
T5 sequence (P42680 1-631): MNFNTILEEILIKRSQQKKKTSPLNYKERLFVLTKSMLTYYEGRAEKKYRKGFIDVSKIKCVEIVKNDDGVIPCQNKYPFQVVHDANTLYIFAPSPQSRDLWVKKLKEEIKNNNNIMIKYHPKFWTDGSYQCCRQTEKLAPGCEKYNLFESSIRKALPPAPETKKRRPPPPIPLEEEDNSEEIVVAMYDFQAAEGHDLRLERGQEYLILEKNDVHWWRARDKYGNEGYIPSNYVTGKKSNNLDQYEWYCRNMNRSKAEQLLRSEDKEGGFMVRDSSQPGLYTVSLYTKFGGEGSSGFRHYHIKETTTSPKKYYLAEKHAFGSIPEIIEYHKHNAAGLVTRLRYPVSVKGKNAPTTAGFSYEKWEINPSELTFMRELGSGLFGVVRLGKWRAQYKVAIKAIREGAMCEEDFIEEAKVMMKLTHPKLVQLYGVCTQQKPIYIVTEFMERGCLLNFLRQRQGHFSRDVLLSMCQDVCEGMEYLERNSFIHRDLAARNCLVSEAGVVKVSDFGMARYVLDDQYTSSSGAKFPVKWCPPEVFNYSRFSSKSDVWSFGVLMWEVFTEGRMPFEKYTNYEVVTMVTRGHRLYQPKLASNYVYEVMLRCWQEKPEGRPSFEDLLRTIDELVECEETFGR
From the text: AlphaScreen assay was used to screen additional kinases. The assay is similarly dependent on the phosphorylation of a peptide substrate. In this assay, an antibody that recognizes phosphorylated substrate is bound to an acceptor bead. The peptide substrate is attached to biotin, which binds to a donor head that contains streptavidin. Thus phosphorylated substrate is bound by antibody and streptavidin, bringing the donor and acceptor heads into close proximity when kinase is not inhibited. The donor produces singlet oxygen which results in emission from the acceptor when they are in close proximity. Conversely, when kinase is inhibited, the donor and acceptor beads are not associated and the emission from the acceptor is reduced.
AlphaScreen assays were done using compounds dissolved in DMSO to a concentration of 20 mM. The compounds were diluted accordingly to the desired final concentrations in each sample well, using 1:3 serial dilution for a total of 8 concentration points.

Jnk1 = target: T6, Jnk1 (Homo sapiens, UniProt P45983); assay: AlphaScreen kinase assay, Jnk1; conditions: read-out: IC50, activity toward kinase Jnk1
T6 construct: purchased Upstate Biotechnology
T6 sequence (P45983 whole entry): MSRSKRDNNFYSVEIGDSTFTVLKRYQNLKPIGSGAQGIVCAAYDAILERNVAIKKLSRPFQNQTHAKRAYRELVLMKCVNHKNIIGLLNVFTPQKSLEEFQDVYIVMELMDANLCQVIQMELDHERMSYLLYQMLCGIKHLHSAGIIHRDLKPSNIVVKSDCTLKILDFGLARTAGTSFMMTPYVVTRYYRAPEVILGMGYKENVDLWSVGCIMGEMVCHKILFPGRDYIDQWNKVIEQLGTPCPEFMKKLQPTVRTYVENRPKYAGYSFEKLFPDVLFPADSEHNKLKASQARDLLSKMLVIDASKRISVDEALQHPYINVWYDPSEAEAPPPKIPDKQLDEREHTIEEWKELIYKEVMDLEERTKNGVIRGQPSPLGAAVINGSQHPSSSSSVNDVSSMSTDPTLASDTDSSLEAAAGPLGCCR

B-Raf V600E = target: T7, B-Raf V600E (Homo sapiens, UniProt P15056, V600E); assay: AlphaScreen kinase assay, B-Raf V600E; conditions: read-out: IC50, activity toward kinase B-Raf V600E
T7 construct: P4254. pFastBacBD-CDC37 BRAF D437-K722-X, V600E; His6 with pFastBac HT leader (TEV site) (N); made in house; host or cells: Sf9 (baculovirus; chaperone CDC37 co-expressed)
T7 sequence (P15056 with tags, fused parts or gaps V600E): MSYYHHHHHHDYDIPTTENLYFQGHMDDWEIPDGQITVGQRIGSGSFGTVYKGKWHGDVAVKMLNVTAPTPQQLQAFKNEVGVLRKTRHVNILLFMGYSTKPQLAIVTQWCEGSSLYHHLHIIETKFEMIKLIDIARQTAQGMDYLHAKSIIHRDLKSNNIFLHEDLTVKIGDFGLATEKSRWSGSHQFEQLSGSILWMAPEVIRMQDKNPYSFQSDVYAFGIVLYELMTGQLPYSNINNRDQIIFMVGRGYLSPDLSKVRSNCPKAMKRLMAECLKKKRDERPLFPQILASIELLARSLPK

c-Raf-1 = target: T8, c-Raf-1 (Homo sapiens, UniProt P04049); assay: AlphaScreen kinase assay, c-Raf-1; conditions: read-out: IC50, activity toward kinase c-Raf-1
T8 construct: purchased Upstate Biotechnology
T8 sequence (P04049 whole entry): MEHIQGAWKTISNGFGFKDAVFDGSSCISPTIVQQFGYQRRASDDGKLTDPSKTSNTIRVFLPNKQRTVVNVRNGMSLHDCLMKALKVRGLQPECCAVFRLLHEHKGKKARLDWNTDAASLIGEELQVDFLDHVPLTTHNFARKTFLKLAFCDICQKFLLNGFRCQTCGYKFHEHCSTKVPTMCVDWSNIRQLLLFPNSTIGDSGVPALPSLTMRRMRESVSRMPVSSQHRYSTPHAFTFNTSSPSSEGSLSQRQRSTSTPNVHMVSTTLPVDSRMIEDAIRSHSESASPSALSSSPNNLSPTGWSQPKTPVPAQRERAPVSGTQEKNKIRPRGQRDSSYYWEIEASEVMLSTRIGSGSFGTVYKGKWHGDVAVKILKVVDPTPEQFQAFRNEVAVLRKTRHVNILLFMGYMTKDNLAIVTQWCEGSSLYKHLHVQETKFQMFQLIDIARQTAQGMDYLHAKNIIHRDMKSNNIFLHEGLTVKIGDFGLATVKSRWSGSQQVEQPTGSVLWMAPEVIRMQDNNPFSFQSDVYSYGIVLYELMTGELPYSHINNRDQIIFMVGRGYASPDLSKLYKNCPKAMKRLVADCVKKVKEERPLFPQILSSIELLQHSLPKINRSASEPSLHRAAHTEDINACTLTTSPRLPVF

Src = target: T9, Src (Homo sapiens, UniProt P12931); assay: AlphaScreen kinase assay, Src; conditions: read-out: IC50, activity toward kinase Src
T9 construct: P1144. pET-N6 BI-PTP SRC V86-L536-X; made in house

Ret = target: T10, Ret (Homo sapiens, UniProt P07949); assay: AlphaScreen kinase assay, Ret; conditions: read-out: IC50, activity toward kinase Ret
T10 construct: P1378.pET-SF BI-PTP RET H661-R1012 HIS; made in house
T10 sequence (P07949 with tags, fused parts or gaps): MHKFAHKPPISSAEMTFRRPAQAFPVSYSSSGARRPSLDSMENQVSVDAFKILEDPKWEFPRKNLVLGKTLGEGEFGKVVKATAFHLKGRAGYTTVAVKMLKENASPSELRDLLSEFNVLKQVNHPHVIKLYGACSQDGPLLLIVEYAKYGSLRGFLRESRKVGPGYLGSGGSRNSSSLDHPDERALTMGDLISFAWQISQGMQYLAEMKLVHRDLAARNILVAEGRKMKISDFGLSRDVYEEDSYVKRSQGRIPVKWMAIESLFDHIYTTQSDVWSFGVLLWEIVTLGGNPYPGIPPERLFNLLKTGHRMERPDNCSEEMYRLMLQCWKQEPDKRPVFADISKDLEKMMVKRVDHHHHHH
Description: AlphaScreen assays were done using compounds dissolved in DMSO to a concentration of 20 mM. The compounds were diluted accordingly to the desired final concentrations in each sample well, using 1:3 serial dilution for a total of 8 concentration points. Plates were prepared such that each kinase reaction is 20 μl in 1× kinase buffer, 5% DMSO and 10 μM ATP. After incubation of the kinase reaction for 1 hour at room temperature, 5 μl of donor beads in stop buffer (50 mM EDTA in 1× kinase buffer) was added, the sample was mixed and incubated for 20 minutes at room temperature before adding 5 μl of acceptor beads in stop buffer. The samples were incubated for 60 minutes at room temperature and the signal per well was read on AlphaQuest reader.

Met = target: T11, Met (Homo sapiens, UniProt P08581); assay: AlphaScreen kinase assay, Met; conditions: read-out: IC50, activity toward kinase Met
T11 construct: P1818.pETN6 BI-PTP MET G1056-G1364-X WT; His6 (N); made in house; host or cells: E. coli (PTP1B co-expressed)
Outline: (§1)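 Peptide phosphorylation detected by proximity: streptavidin donor beads bind biotinylated substrate, acceptor beads carry antibody to phosphorylated substrate, singlet oxygen transfer gives emission. Dose-response over 8 points (1:3 steps); stocks 20 mM in DMSO.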

Jnk2 = target: T12, Jnk2 (Homo sapiens, UniProt P45984); assay: AlphaScreen kinase assay, Jnk2; conditions: read-out: IC50, activity toward kinase Jnk2
T12 construct: purchased Roche Protein Expression Group (Indianapolis, IN)
T12 sequence (P45984 whole entry): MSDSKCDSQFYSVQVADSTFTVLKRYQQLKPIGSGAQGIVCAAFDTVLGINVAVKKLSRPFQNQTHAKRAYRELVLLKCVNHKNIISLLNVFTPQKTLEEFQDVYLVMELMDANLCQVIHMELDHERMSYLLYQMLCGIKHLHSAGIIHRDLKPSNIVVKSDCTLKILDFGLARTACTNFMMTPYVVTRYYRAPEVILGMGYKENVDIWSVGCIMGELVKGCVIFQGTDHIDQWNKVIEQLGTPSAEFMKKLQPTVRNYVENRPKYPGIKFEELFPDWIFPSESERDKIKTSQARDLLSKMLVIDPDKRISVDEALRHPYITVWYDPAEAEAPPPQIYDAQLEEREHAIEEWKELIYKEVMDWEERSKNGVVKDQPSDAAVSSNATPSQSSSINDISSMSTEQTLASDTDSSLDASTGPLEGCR
Outline: as §1

Fms = target: T13, Fms (Homo sapiens, UniProt P07333); assay: AlphaScreen kinase assay, Fms; conditions: read-out: IC50, activity toward kinase Fms
T13 construct: purchased Upstate Biotechnology
T13 sequence (P07333 20-972): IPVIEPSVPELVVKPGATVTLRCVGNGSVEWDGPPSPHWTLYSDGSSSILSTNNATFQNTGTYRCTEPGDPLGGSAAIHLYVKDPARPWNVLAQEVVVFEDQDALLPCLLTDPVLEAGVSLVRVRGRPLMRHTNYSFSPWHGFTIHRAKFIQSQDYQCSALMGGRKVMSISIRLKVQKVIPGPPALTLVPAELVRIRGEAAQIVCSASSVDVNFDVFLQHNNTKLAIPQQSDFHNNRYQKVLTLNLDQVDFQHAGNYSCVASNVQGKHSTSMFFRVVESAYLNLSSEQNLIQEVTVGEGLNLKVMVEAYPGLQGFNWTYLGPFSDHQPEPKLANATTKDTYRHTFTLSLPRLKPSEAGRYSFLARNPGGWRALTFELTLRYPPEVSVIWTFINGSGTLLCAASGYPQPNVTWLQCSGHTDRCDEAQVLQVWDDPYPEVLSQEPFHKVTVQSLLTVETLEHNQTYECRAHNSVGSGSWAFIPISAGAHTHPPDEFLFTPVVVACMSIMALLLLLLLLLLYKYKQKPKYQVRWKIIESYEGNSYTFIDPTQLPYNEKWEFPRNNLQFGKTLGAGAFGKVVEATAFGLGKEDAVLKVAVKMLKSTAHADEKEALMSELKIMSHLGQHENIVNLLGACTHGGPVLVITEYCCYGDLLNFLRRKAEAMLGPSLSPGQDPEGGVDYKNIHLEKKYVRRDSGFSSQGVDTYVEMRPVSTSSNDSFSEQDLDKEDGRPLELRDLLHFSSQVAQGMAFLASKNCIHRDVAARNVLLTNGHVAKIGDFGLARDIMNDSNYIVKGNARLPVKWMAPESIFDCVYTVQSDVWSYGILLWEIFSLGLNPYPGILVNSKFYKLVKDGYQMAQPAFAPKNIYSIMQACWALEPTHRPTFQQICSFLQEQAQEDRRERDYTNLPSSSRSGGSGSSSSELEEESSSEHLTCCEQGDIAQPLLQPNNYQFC

Jnk3 = target: T14, Jnk3 (Homo sapiens, UniProt P53779); assay: AlphaScreen kinase assay, Jnk3; conditions: read-out: IC50, activity toward kinase Jnk3
T14 construct: purchased Upstate Biotechnology

Fak = target: T15, Fak (Homo sapiens, UniProt Q05397); assay: AlphaScreen kinase assay, Fak; conditions: read-out: IC50, activity toward kinase Fak
T15 construct: P1358.pFastBacHtb FAK S411-Q686-X; His6 with pFastBacHTb leader (TEV site) (N); made in house; host or cells: Sf9 (baculovirus)
T15 sequence (Q05397 411-686): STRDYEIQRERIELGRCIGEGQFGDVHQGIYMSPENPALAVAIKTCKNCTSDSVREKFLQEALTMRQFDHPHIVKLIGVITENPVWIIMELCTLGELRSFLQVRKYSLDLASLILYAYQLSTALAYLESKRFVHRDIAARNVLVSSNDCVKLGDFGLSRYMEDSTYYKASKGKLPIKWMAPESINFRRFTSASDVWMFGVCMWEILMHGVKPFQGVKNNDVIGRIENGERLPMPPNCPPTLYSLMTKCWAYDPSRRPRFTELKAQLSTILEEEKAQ

Kit = target: T16, Kit (Homo sapiens, UniProt P10721); assay: AlphaScreen kinase assay, Kit; conditions: read-out: IC50, activity toward kinase Kit
T16 construct: P1332.N6 BI PTP KIT M552-K948-X COD; His6 (N); made in house; host or cells: E. coli (PTP1B co-expressed)

Zap70 = target: T17, Zap70 (Homo sapiens, UniProt P43403); assay: AlphaScreen kinase assay, Zap70; conditions: read-out: IC50, activity toward kinase Zap70
T17 construct: P1868.pFastBac1 ZAP70 D327-G606 HIS, WT; His7 (HHHHHHH) (C); made in house
T17 sequence (P43403 with tags, fused parts or gaps): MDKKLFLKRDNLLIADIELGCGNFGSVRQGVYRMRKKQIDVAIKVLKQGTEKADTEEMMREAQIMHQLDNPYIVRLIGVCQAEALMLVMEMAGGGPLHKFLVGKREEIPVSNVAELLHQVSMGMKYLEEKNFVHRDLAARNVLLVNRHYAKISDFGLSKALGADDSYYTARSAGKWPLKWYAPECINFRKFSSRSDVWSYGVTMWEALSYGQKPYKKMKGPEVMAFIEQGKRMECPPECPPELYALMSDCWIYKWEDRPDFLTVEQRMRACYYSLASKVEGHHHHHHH
Outline: as §1

Measured: IC50

T1 sequence (Q06187 whole entry): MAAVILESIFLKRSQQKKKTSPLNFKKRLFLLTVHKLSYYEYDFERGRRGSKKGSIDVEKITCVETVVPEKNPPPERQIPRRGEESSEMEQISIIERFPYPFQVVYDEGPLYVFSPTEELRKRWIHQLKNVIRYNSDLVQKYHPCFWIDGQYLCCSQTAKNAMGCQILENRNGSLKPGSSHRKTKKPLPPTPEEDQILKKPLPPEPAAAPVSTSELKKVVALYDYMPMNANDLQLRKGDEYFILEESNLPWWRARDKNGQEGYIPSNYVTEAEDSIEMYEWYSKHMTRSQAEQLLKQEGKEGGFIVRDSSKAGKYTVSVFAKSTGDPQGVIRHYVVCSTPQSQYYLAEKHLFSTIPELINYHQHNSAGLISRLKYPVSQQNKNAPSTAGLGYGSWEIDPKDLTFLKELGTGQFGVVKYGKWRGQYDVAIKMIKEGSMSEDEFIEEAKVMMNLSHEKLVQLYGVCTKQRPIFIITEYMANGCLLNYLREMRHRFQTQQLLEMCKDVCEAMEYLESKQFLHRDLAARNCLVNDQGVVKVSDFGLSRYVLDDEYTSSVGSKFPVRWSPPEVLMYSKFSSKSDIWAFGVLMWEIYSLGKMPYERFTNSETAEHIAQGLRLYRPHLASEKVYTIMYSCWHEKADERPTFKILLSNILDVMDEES

CCCS(=O)(=O)Nc1cccc(C(=O)c2c[nH]c3ncc(-c4ccccc4)cc23)c1F [Compound P-0897, Propane-1-sulfonic acid [2-fluoro-3-(5-phenyl-1H-pyrrolo[2,3-b]pyridine-3-carbonyl)-phenyl]-amide]
≤ 10 µM: Btk | FGFR1 | Pyk2 | B-Raf | TEC | Jnk1 | B-Raf V600E | c-Raf-1

CCCS(=O)(=O)Nc1ccc(F)c(C(=O)c2c[nH]c3ncc(C(C)C)cc23)c1F [Compound P-0997]
≤ 10 µM: Btk | FGFR1 | Pyk2 | B-Raf | TEC | Jnk1 | B-Raf V600E | c-Raf-1 | Src

CS(=O)(=O)Nc1cccc(-c2cnc3[nH]cc(C(=O)c4cc(NS(C)(=O)=O)ccc4F)c3c2)c1 [Compound P-0156, N-{4-Fluoro-3-[5-(3-methanesulfonylamino-phenyl)-1H-pyrrolo[2,3-b]pyridine-3-carbonyl]-phenyl}-methanesulfonamide]
≤ 10 µM: Btk | FGFR1 | TEC | Ret | Met | Jnk1 | B-Raf V600E | Jnk2 | c-Raf-1

COC(=O)Nc1ccc(F)c(Cc2c[nH]c3ncc(-c4cccnc4)cc23)c1F [Compound P-0257, [2,4-Difluoro-3-(5-pyridin-3-yl-1H-pyrrolo[2,3-b]pyridin-3-ylmethyl)-phenyl]-carbamic acid methyl ester]
not listed: Src | Met | Jnk2 | Zap70
≤ 10 µM: all other assays above

C=C(C)c1cnc2[nH]cc(C(=O)c3c(F)ccc(NS(=O)(=O)CCC)c3F)c2c1 [Compound P-0991, Propane-1-sulfonic acid [2,4-difluoro-3-(5-isopropenyl-1H-pyrrolo[2,3-b]pyridine-3-carbonyl)-phenyl]-amide]
≤ 10 µM: Btk | FGFR1 | Pyk2 | B-Raf | TEC | Jnk3 | Jnk1 | B-Raf V600E | c-Raf-1

CS(=O)(=O)Nc1ccc(F)c(C(=O)c2c[nH]c3ncc(-c4cccc(C(N)=O)c4)cc23)c1 [Compound P-0228, 3-[3-(2-Fluoro-5-methanesulfonylamino-benzoyl)-1H-pyrrolo[2,3-b]pyridin-5-yl]-benzamide]
not listed: Pyk2 | Src | Fak | Kit
≤ 10 µM: all other assays above

CS(=O)(=O)Nc1ccc(F)c(C(=O)c2c[nH]c3ncc(-c4cccc(S(C)(=O)=O)c4)cc23)c1 [Compound P-0297, N-{4-Fluoro-3-[5-(3-methanesulfonyl-phenyl)-1H-pyrrolo[2,3-b]pyridine-3-carbonyl]-phenyl}-methanesulfonamide]
not listed: Pyk2 | Src | Met | Jnk3 | Fak | Kit | Zap70
≤ 10 µM: all other assays above

O=C(NCc1ccc(CCc2c[nH]c3ncccc23)cc1)Nc1ccccc1 [Compound P-0429]
≤ 10 µM: Btk | TEC
